Laboratory results taken from US20150209315A1 (Cumberland Pharmaceuticals, priority 2009, published 2015).

Test system: post-operative adult patients
Assay: Example 1: patient self-assessment of pain, VAS with movement
Assay type: in vivo, human
Parameters: key to VAS Score measured with Movement (median): VAS 0-10: 0 = no pain, 10 = intense pain
Protocol: Pain was measured by the patient's self-assessment using a Visual Analog Scale (VAS) from 0-10 with 0 being no pain and 10 being intense pain. This was measured both at rest and with movement. […] […] To account for the missing pain assessments, two missing value approaches as described in the statistical analysis plan were used to impute values. To determine the difference in overall pain at differing time-points, the area under the VAS pain curve during the first 24 hours, between 6 and 24 hours and between 12 and 24 hours were analyzed.

CC(C)Cc1ccc(C(C)C(=O)O)cc1 (stereo not shown) [Ibuprofen, 2-(4-isobutylphenyl) propionic acid]
VAS Score measured with Movement (median) (400 mg, EEP, 1-Hour): 7.5 | VAS Score measured with Movement, % Reduction vs Placebo (400 mg, EEP, 1-Hour): 6.2% | VAS Score measured with Movement (median) (400 mg, EEP, 2-Hour): 7.2 | VAS Score measured with Movement, % Reduction vs Placebo (400 mg, EEP, 2-Hour): −1.4% | VAS Score measured with Movement (median) (400 mg, EEP, 3-Hour): 6.2 | VAS Score measured with Movement, % Reduction vs Placebo (400 mg, EEP, 3-Hour): −3.3% | VAS Score measured with Movement (median) (400 mg, EEP, 6-Hour): 5.7 | VAS Score measured with Movement, % Reduction vs Placebo (400 mg, EEP, 6-Hour): −14.0% | VAS Score measured with Movement (median) (400 mg, EEP, 9-Hour): 4.8 | VAS Score measured with Movement, % Reduction vs Placebo (400 mg, EEP, 9-Hour): 4.0% | VAS Score measured with Movement (median) (400 mg, EEP, 12-Hour): 4.5 | VAS Score measured with Movement, % Reduction vs Placebo (400 mg, EEP, 12-Hour): 10.0% | VAS Score measured with Movement (median) (400 mg, EEP, 15-Hour): 4.0 | VAS Score measured with Movement, % Reduction vs Placebo (400 mg, EEP, 15-Hour): 20.0% | VAS Score measured with Movement (median) (400 mg, EEP, 18-Hour): 4.3 | VAS Score measured with Movement, % Reduction vs Placebo (400 mg, EEP, 18-Hour): 14.0% | VAS Score measured with Movement (median) (400 mg, EEP, 21-Hour): 4.0 | VAS Score measured with Movement, % Reduction vs Placebo (400 mg, EEP, 21-Hour): 20.0% | VAS Score measured with Movement (median) (400 mg, EEP, 24-Hour): 5.0 | VAS Score measured with Movement, % Reduction vs Placebo (400 mg, EEP, 24-Hour): −13.6% | VAS Score measured with Movement (median) (400 mg, EEP, 27-Hour): 4.6 | VAS Score measured with Movement, % Reduction vs Placebo (400 mg, EEP, 27-Hour): −2.2% | VAS Score measured with Movement (median) (400 mg, EEP, 30-Hour): 4.0 | VAS Score measured with Movement, % Reduction vs Placebo (400 mg, EEP, 30-Hour): 2.4% | VAS Score measured with Movement (median) (400 mg, EEP, 33-Hour): 3.9 | VAS Score measured with Movement, % Reduction vs Placebo (400 mg, EEP, 33-Hour): −2.6% | VAS Score measured with Movement (median) (400 mg, EEP, 36-Hour): 3.6 | VAS Score measured with Movement, % Reduction vs Placebo (400 mg, EEP, 36-Hour): 7.7% | VAS Score measured with Movement (median) (400 mg, EEP, 39-Hour): 3.1 | VAS Score measured with Movement, % Reduction vs Placebo (400 mg, EEP, 39-Hour): 8.8% | VAS Score measured with Movement (median) (400 mg, EEP, 42-Hour): 3.3 | VAS Score measured with Movement, % Reduction vs Placebo (400 mg, EEP, 42-Hour): 5.7% | VAS Score measured with Movement (median) (400 mg, EEP, 45 Hour): 3.3 | VAS Score measured with Movement, % Reduction vs Placebo (400 mg, EEP, 45 Hour): −6.5% | VAS Score measured with Movement (median) (400 mg, EEP, 48-Hour): 3.2 | VAS Score measured with Movement, % Reduction vs Placebo (400 mg, EEP, 48-Hour): −33.3% | VAS Score measured with Movement (median) (400 mg, ITT, 1-Hour): 7.5 | VAS Score measured with Movement, % Reduction vs Placebo (400 mg, ITT, 1-Hour): 6.2% | VAS Score measured with Movement (median) (400 mg, ITT, 2-Hour): 7.4 | VAS Score measured with Movement, % Reduction vs Placebo (400 mg, ITT, 2-Hour): −1.4% | VAS Score measured with Movement (median) (400 mg, ITT, 3-Hour): 6.3 | VAS Score measured with Movement, % Reduction vs Placebo (400 mg, ITT, 3-Hour): 0.0% | VAS Score measured with Movement (median) (400 mg, ITT, 6-Hour): 5.7 | VAS Score measured with Movement, % Reduction vs Placebo (400 mg, ITT, 6-Hour): 0.0% | VAS Score measured with Movement (median) (400 mg, ITT, 9-Hour): 4.7 | VAS Score measured with Movement, % Reduction vs Placebo (400 mg, ITT, 9-Hour): 9.6% | VAS Score measured with Movement (median) (400 mg, ITT, 12-Hour): 4.5 | VAS Score measured with Movement, % Reduction vs Placebo (400 mg, ITT, 12-Hour): 10.0% | VAS Score measured with Movement (median) (400 mg, ITT, 15-Hour): 3.9 | VAS Score measured with Movement, % Reduction vs Placebo (400 mg, ITT, 15-Hour): 22.0% | VAS Score measured with Movement (median) (400 mg, ITT, 18-Hour): 4.3 | VAS Score measured with Movement, % Reduction vs Placebo (400 mg, ITT, 18-Hour): 14.0% | VAS Score measured with Movement (median) (400 mg, ITT, 21-Hour): 4.1 | VAS Score measured with Movement, % Reduction vs Placebo (400 mg, ITT, 21-Hour): 16.3% | VAS Score measured with Movement (median) (400 mg, ITT, 24-Hour): 4.6 | VAS Score measured with Movement, % Reduction vs Placebo (400 mg, ITT, 24-Hour): −2.2% | VAS Score measured with Movement (median) (400 mg, ITT, 27 Hour): 4.6 | VAS Score measured with Movement, % Reduction vs Placebo (400 mg, ITT, 27 Hour): −4.5% | VAS Score measured with Movement (median) (400 mg, ITT, 30-Hour): 4.0 | VAS Score measured with Movement, % Reduction vs Placebo (400 mg, ITT, 30-Hour): 0.0% | VAS Score measured with Movement (median) (400 mg, ITT, 33-Hour): 3.8 | VAS Score measured with Movement, % Reduction vs Placebo (400 mg, ITT, 33-Hour): 0.0% | VAS Score measured with Movement (median) (400 mg, ITT, 36-Hour): 3.6 | VAS Score measured with Movement, % Reduction vs Placebo (400 mg, ITT, 36-Hour): 10.0% | VAS Score measured with Movement (median) (400 mg, ITT, 39-Hour): 3.1 | VAS Score measured with Movement (median) (400 mg, ITT, 42-Hour): 3.3 | VAS Score measured with Movement, % Reduction vs Placebo (400 mg, ITT, 42-Hour): 2.9% | VAS Score measured with Movement (median) (400 mg, ITT, 45-Hour): 3.3 | VAS Score measured with Movement, % Reduction vs Placebo (400 mg, ITT, 45-Hour): −6.5% | VAS Score measured with Movement (median) (400 mg, ITT, 48-Hour): 3.2 | VAS Score measured with Movement, % Reduction vs Placebo (400 mg, ITT, 48-Hour): −39.1% | VAS Score measured with Movement (median) (800 mg, EEP, 1-Hour): 7.8 | VAS Score measured with Movement, % Reduction vs Placebo (800 mg, EEP, 1-Hour): 2.5% | VAS Score measured with Movement (median) (800 mg, EEP, 2-Hour): 7.0 | VAS Score measured with Movement, % Reduction vs Placebo (800 mg, EEP, 2-Hour): 1.4% | VAS Score measured with Movement (median) (800 mg, EEP, 3-Hour): 6.1
